# Results reported in publication PMC2802001, “Binding of Natural and Synthetic Polyphenols to Human Dihydrofolate Reductase” (International Journal of Molecular Sciences, 2009).
# Values joined by “and” are separate entries in the source; they are usually repeats but may differ in a detail not shown here. Equal values may be shown once. “Also recorded” adds a separate entry of the source.
# Legend:
# [1] = biological target: T1, human DHFR (Homo sapiens, UniProt P00374); test: Fluorescence titration (quenching of tryptophan fluorescence) for binding to free DHFR; details: for Kd / Binding to human DHFR (effect on enzyme fluorescence), in words: fluorescence quenching; for Kd: excitation 290 nm, enzyme 0.1 μM, pH 7.4, read-out: KD, dissociation constant for binding to human DHFR
# T1 construct: purchased Sigma
# T1 sequence (P00374 1-187): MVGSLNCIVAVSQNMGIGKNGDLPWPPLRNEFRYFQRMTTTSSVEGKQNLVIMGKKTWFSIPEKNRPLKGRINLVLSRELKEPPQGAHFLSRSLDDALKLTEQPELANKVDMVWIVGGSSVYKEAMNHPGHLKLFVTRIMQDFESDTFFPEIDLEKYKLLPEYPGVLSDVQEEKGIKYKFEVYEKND
# Procedure: Highly purified tea polyphenols EGCG (>95%), ECG (>98%), EGC (>98%), and EC (>98%) were purchased from Sigma Chemical Co. (Madrid, Spain). Qgal, Qglc, Qrha and Qxyl were form Fluka (Madrid, Spain). […] To synthesize TMECG-QM, a TMECG solution (0.5 mM) in phosphate buffered saline (PBS), pH 7.0, was alkalinize at pH 8.5 with NaOH. The reaction was followed spectrophotometrically at 470 nm and, after completion, the sample was neutralized by adding HCl. Recombinant human DHFR was purchased from Sigma and its concentration was determined by MTX titration of enzyme fluorescence.
# The fluorescence of DHFR is reduced on binding of substrates and inhibitors, and this property may be used as a convenient method for determining both the enzyme concentration and the dissociation constants of enzyme-ligands complexes. Dissociation constants for the binding of polyphenols to free DHFR were determined by fluorescence titration in an automatic-scanning Perkin-Elmer LS50B spectrofluorimeter with 1.0 cm light path cells and equipped with a 150W xenon (XBO) light source. The formation of the binary complex between the enzyme and the ligand was followed by measuring the quenching of tryptophan fluorescence of the enzyme upon addition of microliter volumes of a concentrated stock solution of ligand. Fluorescence emission spectra were recorded when DHFR fluorescence was excited at 290 nm. All measurements were corrected for dilution and the data from the titration curves were fitted as described previously. Titrations were performed in a buffer containing 2-(N-morpholino)ethanesulfonic acid (Mes, 0.025 M), sodium acetate (0.025 M), tris(hydroxymethyl)aminomethane (Tris 0.05 M), and NaCl (0.1 M), at pH 7.4.
# [2] = system: chicken liver DHFR; design: method as in PMID 15781612; details: cited from earlier work
# [3] = biological target: T1, human DHFR; test: Human DHFR activity assayed in the presence of tea catechins; assay type: biochemical
# Procedure: In order to detect which components of these extracts were responsible for such inhibition, human DHFR activity was assayed in the presence of EC, EGC, ECG or EGCG. […] The effective binding of ECG to free human DHFR was determined by following the decrease in enzyme fluorescence that occurs after formation of the enzyme-inhibitor complex (Figure 3).
# [4] = system: bovine liver DHFR; design: method as in PMID 15781612; details: cited from earlier work
# [5] = system: different cancer cell lines; design: method as in PMID 18324763; details: cited from earlier work
# [6] = design: method as in PMID 18324763; details: cited from earlier work
# [7] = Stability of TMECG in solution at neutral and alkaline pH; assay type: physicochemical
# Procedure: Despite the excellent anticancer properties of tea catechins, they have at least one great limitation: their poor bioavailability. The reduced availability of catechins is related with their low stability in neutral or slightly alkaline solutions and their poor ability to cross cellular membranes. […] This synthetic catechin also bound human DHFR with an effective dissociation constant of 2.1 ± 0.2 μM (Figure 5; Table 1). […] By analogy with the oxidation of quercetin in alkaline solution [19], the proposed structure for this compound is depicted in Figure 6 and was identified as a quinone methide (TMECG-QM) with an open structure.
# Highly purified tea polyphenols EGCG (>95%), ECG (>98%), EGC (>98%), and EC (>98%) were purchased from Sigma Chemical Co. (Madrid, Spain). Qgal, Qglc, Qrha and Qxyl were form Fluka (Madrid, Spain). TMECG was successfully synthesized (70% recovery) from catechin with the subsequent inversion of the stereochemistry at C-3 and by reaction of with 3,4,5-trimethoxybenzoylchloride (Sigma). To synthesize TMECG-QM, a TMECG solution (0.5 mM) in phosphate buffered saline (PBS), pH 7.0, was alkalinize at pH 8.5 with NaOH. The reaction was followed spectrophotometrically at 470 nm and, after completion, the sample was neutralized by adding HCl. Recombinant human DHFR was purchased from Sigma and its concentration was determined by MTX titration of enzyme fluorescence.
Kd [1],"Inhibition of human DHFR activity, in words [3]",Compound,further results
900 nM and 920 nM,potent inhibitors,"O=C(O[C@@H]1Cc2c(O)cc(O)cc2O[C@@H]1c1cc(O)c(O)c(O)c1)c1cc(O)c(O)c(O)c1 [EGCG, (-)-epigallocatechin gallate]","Type of inhibition of DHF reduction [2]: classical, reversible, competitive inhibitor; Type of inhibition of DHF reduction [4]: slow-binding inhibitor"
2100 ± 200 nM,–,"COc1cc(C(=O)O[C@@H]2Cc3c(O)cc(O)cc3OC2c2ccc(O)c(O)c2)cc(OC)c1OC (stereo partly drawn) [TMECG, 3-O-(3,4,5-trimethoxybenzoyl)-(-)-epicatechin]","Antiproliferative activity [5]: significant antiproliferative activity; Bioavailability in vitro [6]: high bioavailability in vitro; Stability at alkaline pH ([7]; alkaline pH, band at 470 nm): rapidly evolves to an orange compound; Stability at neutral pH ([7]; neutral pH): highly stable"
1800 nM and 1780 nM,potent inhibitors,"O=C(OC1Cc2c(O)cc(O)cc2OC1c1ccc(O)c(O)c1)c1cc(O)c(O)c(O)c1 (single isomer, unassigned; (-)) [ECG, (-)-epicatechin gallate]",–

# More lines, now with the values behind:
Compound,Kd [1],"Inhibition of human DHFR activity, in words [3]",further results
"Oc1cc(O)c2c(c1)O[C@H](c1ccc(O)c(O)c1)[C@H](O)C2 [EC, (-)-epicatechin]",–,did not inhibit,"Binding to human DHFR (effect on enzyme fluorescence), in words [1]: did not modify the emission spectra; also recorded: did not bind"
COc1cc(C(=O)O[C@H](Cc2c(O)cc(O)cc2O)/C(O)=C2/C=CC(=O)C(O)=C2)cc(OC)c1OC [TMECG-QM],–,–,"Affinity for human DHFR relative to EGCG, ECG or TMECG ([1]; compared with EGCG, ECG or TMECG): more than two-order of magnitude more strongly; Affinity for human DHFR relative to MTX ([1]; compared with MTX): forty-times less"
"CC1OC(Oc2c(-c3ccc(O)c(O)c3)oc3cc(O)cc(O)c3c2=O)C(O)C(O)C1O (stereo not drawn) [Qrha, quercetin-3-rhamnoside]",17200 ± 2400 nM,–,–
"O=c1c(O[C@@H]2O[C@H](CO)[C@H](O)[C@H](O)[C@H]2O)c(-c2ccc(O)c(O)c2)oc2cc(O)cc(O)c12 [Qgal, quercetin-3-D-galactoside]",22800 ± 3200 nM,–,–
"Oc1cc(O)c2c(c1)OC(c1cc(O)c(O)c(O)c1)C(O)C2 (single isomer, unassigned; (-)) [EGC, (-)-epigallocatechin]",–,did not inhibit,"Binding to human DHFR (effect on enzyme fluorescence), in words [1]: did not bind"
"O=c1c(O[C@@H]2O[C@H](CO)[C@@H](O)[C@H](O)[C@H]2O)c(-c2ccc(O)c(O)c2)oc2cc(O)cc(O)c12 [Qglc, quercetin-3-β-D-glucoside]",102000 ± 9000 nM,–,–
"O=c1c(OC2OCC(O)C(O)C2O)c(-c2ccc(O)c(O)c2)oc2cc(O)cc(O)c12 [Qxyl, quercetin-3-D-xyloside]",600 nM and 590 nM,–,–
